The values below come from patent US6410585B1, “Inhibitors of protein tyrosine phosphatase” (priority 1997, dated 2002).

For this assay, the target named is T1, rat PTP1 (Rattus norvegicus, UniProt P20417).
T1 construct: a C-terminal truncation of rat PTP1 (amino acid residues 1-322); GST (N, cleaved yes); made in house; host or cells: E. coli strain TG-1 (pGEX-2T)
T1 sequence (P20417 1-322): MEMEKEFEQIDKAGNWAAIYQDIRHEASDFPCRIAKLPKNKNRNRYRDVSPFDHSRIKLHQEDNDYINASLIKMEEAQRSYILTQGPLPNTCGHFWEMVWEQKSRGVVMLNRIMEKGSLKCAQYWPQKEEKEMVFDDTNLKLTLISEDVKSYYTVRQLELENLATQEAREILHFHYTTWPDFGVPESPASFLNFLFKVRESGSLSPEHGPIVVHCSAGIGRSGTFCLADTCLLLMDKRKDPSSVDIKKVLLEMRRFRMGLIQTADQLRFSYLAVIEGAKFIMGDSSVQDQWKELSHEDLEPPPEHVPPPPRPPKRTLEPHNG
Kind of assay: PTP1 assay, pNPP hydrolysis (rate of change in A405). It is filed as biochemical. The text has this:
PTP1 Assays: A construct, which consisted of a C-terminal truncation of rat PTP1 (amino acid residues 1-322) (cloned from a rat brain library) with an N-terminal glutathione S-transferase (GST) tag and an adjacent thrombin cleavage site, was inserted into vector plasmid pGEX-2T and transformed into E. coli strain TG-1 under the control of a lac promoter (K. L. Guan and J. E. Dixon (1991) Eukaryotic proteins expressed in Escherichia coli: an improved thrombin cleavage and purification procedure of fusion proteins with glutathione S-transferase. Analyt. Biochem. 192: 262-267). The GST-fusion protein was purified on a glutathione agarose affinity column, the GST tag was cleaved with thrombin, and the active enzyme was recovered for use in an assay to identify PTP inhibitors.
PTP1 activity is measured using either p-nitrophenol phosphate (pNPP) or a triphosphopeptide (that matches residues 1142 through 1153 of the β-subunit and the insulin receptor) as substrate in a 96-well microtiter plate format. An assay pH of 7.2 is used for standard assays (measured 405=9800 at pH 7.2).
Standard assays are conducted at room temperature in a total volume of 0.2 ml that contains Hepes buffer (50 mM, pH 7.2), NaCl (50 mM), EDTA (1 mM), DTT (1 mM), bovine serum albumin (1 mg/ml), pNPP (1 mM) and PTP1 (35 ng/ml). Compounds (2 μl of 10 mM solutions) are pipetted into wells of microtiter plates followed by 198 μl of premixed reaction mix (with PTP1 and pNPP added immediately before use). The rate of change in A405 is recorded for 60 min. Two wells on each plate contain DMSO controls and two wells contain sodium orthovanadate (1 mM) which inhibits PTP1-catalyzed hydrolysis of pNPP completely. Data are expressed as percent inhibition relative to the average of the DMSO controls measured on the same microtiter plate.

Setting [1] is: inhibition of pNPP-hydrolysis, compound concentration 1 μM, read-out: % Inhibition.
Where [2] appears, read: inhibition of pNPP-hydrolysis, compound concentration 10 μM, read-out: % Inhibition.
Where [3] appears, read: inhibition of pNPP-hydrolysis, compound concentration 100 μM, read-out: % Inhibition.
[4] abbreviates: Conc 1 uM, pNPP hydrolysis, Table 1, read-out: PTP1 Inhib % Inhib.
Setting [5] is: Conc 10 uM, pNPP hydrolysis, Table 1, read-out: PTP1 Inhib % Inhib.
Where [6] appears, read: Conc 100 uM, pNPP hydrolysis, Table 1, read-out: PTP1 Inhib % Inhib.
Where [7] appears, read: Conc 1 uM, pNPP hydrolysis, Table 2, read-out: PTP1 Inhib PTP1N. % Inhib.
The mark [8] stands for this setting: Conc 10 uM, pNPP hydrolysis, Table 2, read-out: PTP1 Inhib PTP1N. % Inhib.
The mark [9] stands for this setting: Conc 100 uM, pNPP hydrolysis, Table 2, read-out: PTP1 Inhib PTP1N. % Inhib.
Setting [10] is: Conc 1 uM, pNPP hydrolysis, Table 1.
[11] abbreviates: Conc 100 uM, pNPP hydrolysis, Table 1.

pKi: −log10 of the molar value. Like-named read-outs stand apart in the source and are kept apart here.

As to `O=C(O)COc1ccc(C[C@H](NS(=O)(=O)/C=C/c2ccccc2)C(=O)NCCCCc2ccc(Cl)cc2)cc1C(=O)O` [Example 156-7, 2-(carboxymethoxy)-5-[(2S)-3-{[4-(4-chlorophenyl)butyl]amino}-3-oxo-2-({[(E)-2-phenylethenyl]sulfonyl}amino)propyl]benzoic acid], the inhibition at 1 µM under setting [1] is 18%. Further, the inhibition at 10 µM under setting [2] is 69%. In addition, the inhibition at 100 µM under setting [3] worked out at 95%.

Regarding `CCCCCNC(=O)[C@H](Cc1ccc(OC(C(=O)O)C(=O)O)cc1)NC(=O)C(CC(=O)O)NC(=O)OCc1ccccc1` (stereo partly drawn), under setting [4], the inhibition at 1 µM was 10%. The inhibition at 10 µM under setting [5] is 51%. Further, the inhibition at 100 µM under setting [6] was 90%.

With `CC(C)CCNC(=O)[C@H](Cc1ccc(OC(C(=O)O)C(=O)O)cc1)NC(=O)CCC(=O)O`, under setting [4], the inhibition at 1 µM amounted to 0%. The inhibition at 10 µM under setting [5] turned out to be 6%. For the same compound, the inhibition at 100 µM under setting [6] turned out to be 48%.

Consider `CC(C)(C)OC(=O)N[C@@H](Cc1ccccc1)C(=O)N[C@H](CO)Cc1ccc(OCC(=O)O)c(C(=O)O)c1` [Example 148, 5-[(2S)-2-({(2S)-2-[(tert-butoxycarbonyl)amino]-3-phenylpropanoyl}amino)-3-hydroxypropyl]-2-(carboxymethoxy)benzoic Acid], for which the inhibition at 1 µM under setting [1] came out at 5%. Moreover, the inhibition at 10 µM under setting [2] was 31%. Further, the inhibition at 100 µM under setting [3] came out at 80%.

Turning to `CCCCCNC(=O)[C@H](Cc1ccc(OC(C(=O)O)C(=O)O)cc1)NC(=O)CCCC(=O)O`, the inhibition at 1 µM under setting [4] is 2%. The inhibition at 10 µM under setting [5] was determined as 17%. Further, the inhibition at 100 µM under setting [6] was 67%.

`O=C(O)COc1ccc(C[C@H](NC(=O)c2ccccc2)C(=O)NCCCCc2ccccc2)cc1C(=O)O` [Example 154-8, 5-{(2S)-2-(benzoylamino)-3-oxo-3-[(4-phenylbutyl)amino]propyl}-2-(carboxymethoxy)benzoic acid]: the inhibition at 1 µM under setting [1] was determined as 30%. Further, the inhibition at 10 µM under setting [2] was found to be 81%. Besides, the inhibition at 100 µM under setting [3] was 97%.

With `CCCCCNC(=O)[C@H](Cc1ccc(OC(C(=O)O)C(=O)O)cc1)NC(=O)[C@H](CC(=O)O)NC(=O)CCCCC`, the inhibition at 1 µM under setting [4] was 14%. Further, the inhibition at 10 µM under setting [5] turned out to be 57%. Moreover, under setting [6], the inhibition at 100 µM was 91%.

As to `CCCCCNC(=O)[C@H](Cc1ccc(OC(C(=O)O)C(=O)O)cc1)NC(=O)CC(=O)O`, the inhibition at 1 µM under setting [4] was 4%. Further, the inhibition at 10 µM under setting [5] was 20%. Besides, the inhibition at 100 µM under setting [6] is 74%.

For the compound `CCCCCNC(=O)C(Cc1ccc(OC(COO)COO)cc1)NC(=O)C(Cc1ccc(OC)cc1)NC(=O)OC(C)(C)C` (stereo not drawn), the inhibition at 1 µM under setting [7] came to 8%. The inhibition at 10 µM under setting [8] worked out at 36%. In addition, the inhibition at 100 µM under setting [9] was determined as 90%.

For the compound `CCCCCNC(=O)C(Cc1ccc(OC(COO)COO)cc1)NC(=O)NCCC(=O)O` (stereo not drawn), the “PTP1 Inhib % Inhib” value stood at 3% under setting [10] and 74% under setting [11]. The inhibition at 1 µM under setting [4] was determined as 2%. In addition, the inhibition at 10 µM under setting [5] stood at 21%. Further, under setting [6], the inhibition at 100 µM stood at 72%.

Regarding `CCCCCNC(=O)C(Cc1ccc(OC(COO)COO)cc1)NC(=O)C(Cc1ccc(OCc2ccccc2)cc1)N(C)C(=O)OC(C)(C)C` (stereo not drawn), the inhibition at 1 µM under setting [7] amounted to 0%. The inhibition at 10 µM under setting [8] worked out at 0%. Moreover, under setting [9], the inhibition at 100 µM is 32%.

As to `O=C(O)CCC(=O)N[C@@H](Cc1ccc(OC(C(=O)O)C(=O)O)cc1)C(=O)NCC1CCCCC1`, the inhibition at 1 µM under setting [4] was 0%. Also, the inhibition at 10 µM under setting [5] stood at 21%. Under setting [6], the inhibition at 100 µM is 73%.

`CCCCCNC(=O)C(Cc1ccc(OC(COO)COO)cc1)NC(=O)C(Cc1ccc(C(=O)c2ccccc2)cc1)NC(=O)CCC(=O)O` (stereo not drawn) [drawing 133]: under setting [4], the inhibition at 1 µM amounted to 42%. Further, the inhibition at 10 µM under setting [5] is 87%. Besides, the inhibition at 100 µM under setting [6] came out at 98%.

Turning to `CCCCCNC(=O)C(Cc1ccc(OC(COO)COO)cc1)NC(=O)CCC(=O)O` (stereo not drawn) [drawing 101], the “PTP1 Inhib % Inhib” value under setting [10] was determined as 3%; the “PTP1 Inhib % Inhib” value (Conc 10 uM, pNPP hydrolysis, Table 1) amounted to 4%; the “PTP1 Inhib % Inhib” value under setting [11] worked out at 39%.

Take `CCCCCNC(=O)C(Cc1ccc(OC(COO)COO)cc1)NC(=O)C(Cc1ccc(OC(C)(C)C)cc1)NC(=O)CCC(=O)O` (stereo not drawn): the inhibition at 1 µM under setting [7] worked out at 37%. The inhibition at 10 µM under setting [8] was found to be 83%. Besides, the inhibition at 100 µM under setting [9] came to 97%.

Consider `CCCCCNC(=O)[C@H](Cc1ccc(OC(C(=O)O)C(=O)O)cc1)NC(=O)C1CC1C(=O)O` (stereo partly drawn), for which the inhibition at 1 µM under setting [4] worked out at 0%. For the same compound, the inhibition at 10 µM under setting [5] is 11%. Besides, under setting [6], the inhibition at 100 µM came to 57%.

For the compound `CCCCCNC(=O)C(Cc1ccc(OC(COO)COO)cc1)NC(=O)NC(CCC(=O)O)C(=O)O` (stereo not drawn), the inhibition at 1 µM under setting [4] came out at 17%. The inhibition at 10 µM under setting [5] was determined as 64%. Besides, the inhibition at 100 µM under setting [6] was 94%.

For the compound `O=C(O)CCC(=O)NC(Cc1ccc(OC(COO)COO)cc1)C(=O)NCc1cccc2ccccc12` (stereo not drawn), under setting [4], the inhibition at 1 µM was 7%. Under setting [5], the inhibition at 10 µM was 18%. Moreover, under setting [6], the inhibition at 100 µM was found to be 61%.

On to `COc1ccc(CCCCNC(=O)[C@H](Cc2ccc(OCC(=O)O)c(C(=O)O)c2)NC(=O)c2ccc(Cl)nc2)cc1` [Example 154-34, 2-(carboxymethoxy)-5-((2S)-2-{[(6-chloro-3-pyridinyl)carbonyl]amino}-3-{[4-(4-methoxyphenyl)butyl]amino}-3-oxopropyl)benzoic acid], for which, under setting [1], the inhibition at 1 µM turned out to be 26%. Further, under setting [2], the inhibition at 10 µM came out at 77%. In addition, under setting [3], the inhibition at 100 µM worked out at 96%.

For `O=C(O)COc1ccc(C[C@H](NC(=O)c2ccoc2)C(=O)NCCCCc2ccc(Cl)cc2)cc1C(=O)O` [Example 154-26, 2-(carboxymethoxy)-5-[(2S)-3-{[4-(4-chlorophenyl)butyl]amino}-2-(3-furoylamino)-3-oxopropyl]benzoic acid], the inhibition at 1 µM under setting [1] came to 30%. Besides, the inhibition at 10 µM under setting [2] worked out at 78%. Under setting [3], the inhibition at 100 µM was determined as 97%.

With `CCCCCNC(=O)[C@H](Cc1ccc(OCC(=O)O)c(C(=O)O)c1)NC(=O)[C@H](Cc1ccccc1)NC(=O)Oc1ccccc1` [Example 158, 2-(Carboxymethoxy)-5-[(2S)-3-oxo-3-(pentylamino)-2-({(2S)-2-[(phenoxycarbonyl)amino]-3-phenylpropanoyl}amino)propyl]benzoic Acid], the pKi (in general, −log10 of the Ki, conventionally taken in molar units) (calculated from IC50-values obtained from a dose-response curve using the inhibition assay) is 6.06. Also, the inhibition at 1 µM under setting [1] amounted to 43%. For the same compound, the inhibition at 10 µM under setting [2] is 85%. Besides, the inhibition at 100 µM under setting [3] worked out at 97%.

`CCCCCNC(=O)C(Cc1ccc(OC(C(=O)O)C(=O)O)cc1)NC(=O)C(CC(=O)O)NC(=O)OC(C)(C)C` (stereo not drawn): the inhibition at 1 µM under setting [4] worked out at 16%. The inhibition at 10 µM under setting [5] amounted to 62%. Under setting [6], the inhibition at 100 µM is 94%.

For the compound `O=C(O)CCC(=O)N[C@@H](Cc1ccc(OC(C(=O)O)C(=O)O)cc1)C(=O)NCCCn1ccnc1`, under setting [4], the inhibition at 1 µM stood at 2%. Moreover, under setting [5], the inhibition at 10 µM is 3%. Also, the inhibition at 100 µM under setting [6] came out at 26%.

`CCCCCNC(=O)[C@H](Cc1ccc(OCC(=O)O)c(C(=O)O)c1)NC(=O)c1cnc(Cl)c(Cl)c1` [Example 154-2, 2-(carboxymethoxy)-5-[(2S)-2-{[(5,6-dichloro-3-pyridinyl)carbonyl]amino}-3-oxo-3-(pentylamino)propyl]benzoic acid]: the inhibition at 1 µM under setting [1] was determined as 23%. Further, the inhibition at 10 µM under setting [2] came out at 72%. In addition, the inhibition at 100 µM under setting [3] came out at 95%.

On to `O=C(O)COc1ccc(C[C@H](NC(=O)c2ccc(Cl)cc2)C(=O)NCCCCc2ccccc2)cc1C(=O)O` [Example 154-9, 2-(carboxymethoxy)-5-{(2S)-2-[(4-chlorobenzoyl)amino]-3-oxo-3-[(4-phenylbutyl)amino]propyl}benzoic acid], for which the inhibition at 1 µM under setting [1] stood at 37%. In addition, under setting [2], the inhibition at 10 µM came to 85%. Moreover, the inhibition at 100 µM under setting [3] came out at 97%.
